The record followed here is article PMC6630718, “Discovery of Novel UV-Filters with Favorable Safety Profiles in the 5-Arylideneimidazolidine-2,4-dione Derivatives Group” (Molecules, 2019).

Data set [1] can be described thus: Ames MPF Penta 2 microplate mutagenicity assay, TA98. In kind it is cell-based. The following applies: Salmonella typhimurium, read-out: FIB (fold induction over baseline), positive control. The procedure:
(§1) The assay is a liquid microplate modification of the traditional Salmonella test. During the procedure, bacteria are exposed to different concentrations of a test compound for 90 min in a medium containing sufficient histidine (S. typhimurium) or tryptophan (E. coli) to support cell divisions. Then, the cultures are diluted in pH indicator medium lacking histidine or tryptophan and aliquoted into 48 wells of a 384-well plate. Within 48 hours, cells that have undergone reversion to amino acid prototrophy will grow into colonies. Bacterial metabolism reduces pH of the medium, changing the color of that well from purple to yellow (https://www.xenometrix.ch).
(§2) The following strains were used in the study: S. typhimurium TA98, TA100, TA1535, TA1537 and E. coli wp2 uvrA[pKM101]. TA100, TA1535 and E. coli strains are used for the detection of base substitution mutations, whereas TA98 and TA1537 are utilized for the detection of frameshift mutations. S. typhimurium strains have GC base pairs, whereas E. coli strain has AT base pair at their primary reversion site and detect certain oxidizing mutagens, cross-linking agents and hydrazines.
(§3) The test procedure provided by Xenometrix (https://www.xenometrix.ch) and described earlier was followed. Briefly, the bacterial strains were grown overnight in exposure medium and exposed to test compounds 4g and 3b in 24-well plates for 90 min at 37 °C with agitation in the absence (–S9) or presence (+S9) of 4.5% phenobarbital/ β-naphthoflavone-induced rat liver S9. Compounds 4g and 3b were dissolved in DMSO and tested at final concentrations of 0.1, 0.2 and 0.5 mM. After the preincubation, the cultures were diluted in the indicator medium and the contents of each 24-well culture were distributed into 48 wells on a 384-well plate and incubated further for 48 h at 37 °C without agitation. After the exposure, the number of wells containing bacteria was scored by eye for yellow wells. Positive and negative controls were included in the assay, and all doses were done in triplicate.
(§4) Pure DMSO was used as the negative control.
(§5) The fold increase of revertants relative to the solvent control was determined by dividing the mean number of positive wells at each dose by the solvent control at baseline. The solvent control at baseline was defined as the mean number of positive wells in the solvent control plus one standard deviation (SD). When an increase of more than 2-fold relative to the baseline at more than one dose with a dose–response is observed the sample is classified as positive, whereas when no response >2 times the baseline and no dose–response is stated the sample is negative.

Data set [2] in a line: Ames MPF Penta 2 microplate mutagenicity assay, TA100. In kind it is cell-based. The following applies: Salmonella typhimurium; TA100, +S9, 1.25 µg/mL; read-out: FIB (fold induction over baseline), positive control. The procedure:
as §1, §2, §3, §4, §5

Data set [3] is described as follows: in vitro. The following applies: Salmonella typhimurium. The procedure:
as §1, §2, §3, §4, §5

Data set [4] is described as follows: Ames MPF Penta 2 microplate mutagenicity assay, TA1535. The settings on record: Salmonella typhimurium, FIB (fold induction over baseline), positive control, TA1535, –S9, 100 µg/mL. The procedure: as §1, §2, §3, §4, §5

Turning to `Nc1ccc2cc3ccccc3cc2c1` [Compound 2-AA, 2-aminoanthracene, reference compound], the fold induction at 90 min, 0.5 µg/mL in data set [1] (TA98, +S9, 0.5 µg/mL) stood at 12.6. Also, the fold induction at 90 min, 1.25 µg/mL in data set [2] is 3.1.
For `O=[N+]([O-])c1ccc2c(c1)Cc1ccccc1-2` [Compound 2-NF, 2-nitrofluorene, reference compound], in data set [1] (S. typhimurium TA98 without S9 (–S9), TA98, –S9, 2 µg/mL), the fold induction at 90 min, 2 µg/mL worked out at 25.3.
`Nc1c2ccccc2nc2ccccc12` [Compound 9-AAc, 9-aminoacridine, reference compound]: the fold induction at 90 min, 15 µg/mL in data set [3] is 48.
As for `NNc1ccn([C@@H]2O[C@H](CO)[C@@H](O)[C@H]2O)c(=O)n1` [Compound N4-ACT, N4-aminocytidine, reference compound], the fold induction at 90 min, 100 µg/mL in data set [4] stood at 40.
